The text below walks through data of PubChem BioAssay (NCI).

Common to all, as to assay: DTP human tumour cell line panel, 48 h
Experiment [1] relates to SW-620 colon.
Experiment [2] concerns UO-31 renal.
Experiment [3] deals with HCT-15 colon.
In experiment [4] the test system is LOX IMVI melanoma.
The test system of experiment [5] is KM12 colon.
In experiment [6] the test system is OVCAR-8 ovarian.
The test system of experiment [7] is MDA-MB-231 breast.
In experiment [8] the test system is IGROV1 ovarian.
Experiment [9] deals with MDA-MB-435.
Experiment [10] concerns NCI-H226 lung.

Where “and” joins values, the source holds several entries; their conditions need not be identical. Equal values may be shown once.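 Exposure lasted 48 hours, with cells grown in 96-well plates and compounds tested at five concentrations. Here, GI50 denotes the concentration required for 50% inhibition of growth. TGI denotes the concentration required for complete inhibition of growth.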

For `N#Cc1c(NC(=O)CN2CCOCC2)sc2c1CCCC2`, the GI50 in experiment [1], in [2], in [3], in experiment [4], in [5] and in [6] was more than 25 µM each time. For the same compound, the GI50 in [7], in [8], in experiment [9] and in experiment [10] was more than 25 µM throughout. Further, the TGI in [1], in experiment [2], in [3], in experiment [4], in experiment [5] and in experiment [6] was more than 25 µM in each case. Also, the TGI in [7], in [8], in [9] and in experiment [10] was more than 25 µM in each case.

As for `CN(C)CCCNc1nccc(-c2c(-c3ccc(F)cc3)nn3cc(C(F)(F)F)ccc23)n1`, the GI50 in experiment [1] is 7.33 µM; in experiment [2] it was 2.91 µM; in experiment [3], 7.26 µM; in experiment [4], 5.06 µM; in experiment [5], 8.3 µM; in [6] it was more than 20.1 µM. In addition, the GI50 in experiment [7] was 3.83 µM; in experiment [8], 10.2 µM; in experiment [9] it was 5.46 µM; in experiment [10], 3.72 µM. Also, the TGI was more than 25 µM in [1]; more than 25 µM in experiment [2]; more than 25 µM in experiment [3]; 15.2 µM in experiment [4]; more than 25 µM in [5]; more than 25 µM in experiment [6]. For the same compound, the concentration for total growth inhibition (TGI) in experiment [7] is 11.1 µM; in experiment [8], more than 25 µM; in [9], 15.2 µM; in experiment [10], 11.2 µM.

`Cc1ccccc1N=Nc1c(O)[nH]c2ccccc12`: the TGI in experiment [1], in experiment [2], in experiment [3], in [4], in experiment [5] and in experiment [6] was more than 100 µM each time. Moreover, the TGI in [7], in experiment [8], in [9] and in [10] was more than 100 µM throughout.

For `CC1=C(/C=C/C(C)=C/C=C/C(C)=C/C(=O)Nc2ccc(O)cc2)C(C)(C)CCC1`, the TGI in experiment [1] was 13.7 µM and 44.5 µM; in experiment [2] it was 2.57 µM and 11.6 µM; in [3], 17.9 µM and 25.2 µM; in [4], 2.26 µM and 4.76 µM; in [5], 6.19 µM and 17.2 µM; in experiment [6], 8.48 µM and 10.2 µM. For the same compound, the concentration for total growth inhibition (TGI) in experiment [7] was 10.1 µM and 6.06 µM; in experiment [8], 3.68 µM and 4.91 µM; in experiment [9] it was 5.99 µM and 18.7 µM; in experiment [10], 23.9 µM and 16.7 µM. Also, the GI50 in experiment [2] was 1.17 µM; in experiment [4], 0.588 µM; in experiment [5], 1.58 µM; in experiment [6], 2.56 µM; in [7], 1.79 µM; in experiment [8], 1.19 µM. For the same compound, the GI50 was 1.9 µM in [9] and 10.3 µM in experiment [10].

For the compound `COC(=O)c1ccc([N+](=O)[O-])c(O)c1`, the TGI in experiment [1], in experiment [2], in experiment [3], in experiment [4], in [5] and in experiment [6] was more than 100 µM in each case. For the same compound, the TGI in experiment [7], in experiment [8], in experiment [9] and in [10] was more than 100 µM each time.

As to `O=C1/C(=C\c2coc3ccccc3c2=O)c2ccccc2N1c1c(Cl)cccc1Cl`, the GI50 in experiment [1] is 5.28 µM; in [2] it was 1.8 µM; in [3] it was 0.65 µM; in [4], 1.52 µM; in experiment [5] it was 3.06 µM; in experiment [6] it was 5.47 µM. Besides, the GI50 in experiment [7] was 3.88 µM; in experiment [8], 1.62 µM; in [9], 2.7 µM; in [10], 20.7 µM. Moreover, the TGI was more than 100 µM in experiment [1]; 11.9 µM in experiment [2]; more than 100 µM in [3]; 8.91 µM in [4]; 68.5 µM in experiment [5]; 48.8 µM in [6]. Further, the TGI was more than 100 µM in experiment [7], 5.91 µM in experiment [8], 9.69 µM in experiment [9] and more than 100 µM in experiment [10].

Take `C#COc1cccc(Nc2ncnc3ncc(NC(=O)CCl)cc23)c1`: the total growth inhibition concentration (TGI) in [1] was more than 62.5 µM; in [2] it was more than 33.2 µM; in [3], more than 62.5 µM; in experiment [4], more than 28 µM; in experiment [5], more than 62.5 µM; in experiment [6], more than 62.5 µM. Further, the TGI in [7] is more than 62.5 µM; in experiment [8] it was more than 26.1 µM; in experiment [9], more than 62.5 µM; in experiment [10], more than 62.5 µM. The GI50 in [2] was more than 14 µM; in experiment [3], more than 14 µM; in experiment [5] it was more than 28.4 µM; in [6], more than 14.5 µM; in experiment [7], more than 27.3 µM; in experiment [9] it was more than 49.8 µM. Also, in experiment [10], the GI50 was more than 62.5 µM.

Turning to `CN1c2ccccc2S(=O)(=O)n2c(COc3ccc(Cl)cc3)nnc21`, the TGI in experiment [1], in [2], in experiment [3], in experiment [4], in [5] and in [6] was more than 100 µM each time. The TGI in [7], in experiment [8], in experiment [9] and in experiment [10] was more than 100 µM each time.

Take `C#CCNC(=O)CC[C@]1(C)[C@H]2CC[C@@H]3[C@@H]([C@@](C)(O)CCC=C(C)C)CC[C@@]3(C)[C@]2(C)CC[C@H]1C(=C)C`: the GI50 was 29.4 µM in experiment [1]; 14.1 µM in experiment [2]; 20.8 µM in experiment [3]; 9.73 µM in experiment [4]; 38.5 µM in experiment [5]; 31.3 µM in experiment [6]. In addition, the GI50 is 22.3 µM in experiment [7], 10.2 µM in experiment [8], 38.1 µM in experiment [9] and 18.3 µM in [10]. In addition, the TGI is more than 100 µM in experiment [1]; 29.1 µM in experiment [2]; 59.3 µM in [3]; 27.4 µM in [4]; more than 100 µM in [5]; more than 100 µM in experiment [6]. Besides, the total growth inhibition concentration (TGI) in experiment [7] is 67.5 µM; in [8] it was 25.4 µM; in experiment [9] it was more than 100 µM; in experiment [10], 43.1 µM.

Usually GI50 stands for the concentration that inhibits growth by half. By TGI is commonly meant the concentration giving total growth inhibition.
